# What was measured:
# HBV = assay: HBV-DNA antiviral assay using HepG2.117 cells (intracellular HBV DNA by qPCR); format: cell-based, genotype D HBV; details: Hepatitis B virus, 72 h, HBV DNA inhibition, 3 days incubation
# Procedure: (§1) The following assay procedure describes the HBV antiviral assay, using HepG2.117 cells, which carry a stably integrated genotype D HBV genome under the control of a Tet-off promoter, and intracellular HBV DNA quantification as endpoint. Cell viability is assessed in parallel by measuring the intracellular ATP content using CellTiter-Glo 2.0 (Promega).
# (§2) On day 0, HepG2.117 cells (which are maintained in routine cell culture with doxycycline present in the medium at a final concentration of 1 μg/mL) are seeded in 96-well plates (white with clear bottom) at a density of 2.0×10^4 cells/well (0.1 mL/well) in medium without doxycycline to induce pgRNA transcription and subsequent formation of HBV particles. The cells are incubated at 37° C. and 5% CO2.
# (§3) On day 1, medium is removed from each well, the test articles are diluted in culture medium without doxcycyline and 100 μL was added to cell culture wells (9 concentrations, 4-fold dilution). For each plate, 6 untreated (merely DMSO) wells are included. The final concentration of DMSO in the culture medium is 2%. Each plate is prepared in duplicate (one for HBV DNA extraction, one for CellTiter-Glo 2.0 measurement). The cells are incubated at 37° C. and 5% CO2 for 3 days.
# (§4) On day 4, cell viability is assessed using CellTiter-Glo 2.0 and cell lysates are prepared for HBV DNA extraction and subsequent quantification by qPCR.
# Medium is removed from each well and 100 μL of 0.33% NP-40 in H2O was added to each well. Plates are sealed, incubated at 4° C. for 5 mins, vortexed extensively and centrifuged briefly. Next, 35 μL of lysate is added to 65 μL QuickExtract DNA Extraction Solution (Epicentre) in a PCR plate for each well. PCR plate is incubated at 65° C. for 6 mins, 98° C. for 2 mins and finally cooled to 4° C. HBV DNA is then quantified by qPCR with HBV-specific primers and probes as specified in Table 2 using the Bio-Rad SSOAdvanced Universal Probes Supermix on a CFX96 machine (Bio-Rad). The PCR cycle program consisted of 95° C. for 3 mins, followed by 40 cycles at 95° C. for 10 sec and 60° C. for 30 sec.
# A DNA standard is prepared by dilution of an IDT gBlock corresponding to the amplicon with concentrations ranging from 10^2 to 10^8 copies/input (i.e., per 4 μL) and used to generate a standard curve by plotting Cq values vs. HBV DNA standard concentration. The quantity of HBV DNA in each sample is determined by interpolating from the standard curve.
# (§5) Cell viability is calculated as follows: % Cell viability=(luminescence value of test sample)/(average luminescence value of 2% DMSO control)×100%. HBV DNA inhibition was calculated as follows: 100−(HBV DNA copy number of test sample)/(average HBV DNA copy number of 2% DMSO control)×100%. No normalization to entecavir is required due to the excellent dynamic window of this assay. The CC50, EC50 and EC90 values were determined by dose-response curves fitted using non-linear regression.
# [1] = Cell viability by CellTiter-Glo 2.0 (intracellular ATP) in HepG2.117 cells; format: cell-based; details: human, CellTiter-Glo 2.0, 3 days incubation
# Procedure: as §1, §2, §3, §4
# Using the other plates, the cell viability is quantified by CellTiter-Glo 2.0 according to the manufacturer's manual. In brief, 100 μL of reagent solution is added to the culture plates and shaken for 2′. The plates are incubated at rt for 10 min and luminescence signal is subsequently measured on a VarioSkan Lux (ThermoFisher) plate reader.
# as §5
Compound,EC50 (HBV) [µM],CC50 at 3 days [1] [µM]
CNC(=O)c1ccc(-n2c(-n3cc4c(n3)CCCC4)nc3c(c2=O)C[C@@H](C)N(C(=O)c2ccc(Br)c(C(F)(F)F)c2)C3)cc1 [Compound 10],≤ 0.05,> 50
CCc1cc(CC)n(-c2nc3c(c(=O)n2-c2ccc(C(=O)NC)cc2)C[C@@H](C)N(C(=O)c2ccc(Br)c(C(F)(F)F)c2)C3)n1 [Compound 4],≤ 0.05,> 50
CNC(=O)c1ccc(-n2c(-n3nc(C)cc3C(C)C)nc3c(c2=O)C[C@@H](C)N(C(=O)c2ccc(Br)c(C(F)(F)F)c2)C3)cc1 [Compound 8],≤ 0.05,> 50
CNC(=O)c1ccc(-n2c(-n3nc(C(=O)N(C)C)cc3C)nc3c(c2=O)C[C@@H](C)N(C(=O)c2ccc(Br)c(C(F)(F)F)c2)C3)cc1 [Compound 11],0.05 to 0.5,> 50
[2H]c1c(C)nn(-c2nc3c(c(=O)n2-c2ccc(C(=O)NC)cc2)C[C@@H](C)N(C(=O)c2ccc(Br)c(C(F)(F)F)c2)C3)c1C [Compound 12],≤ 0.05,> 50
CNC(=O)c1ccc(-n2c(-n3nc(C)c(C)c3C)nc3c(c2=O)C[C@@H](C)N(C(=O)c2ccc(Br)c(C(F)(F)F)c2)C3)cc1 [Compound 9],0.05 to 0.5,> 5
"CNC(=O)c1ccc(-n2c(-n3nc(C#N)cc3C)nc3c(c2=O)C[C@@H](C)N(C(=O)c2ccc(Br)c(C(F)(F)F)c2)C3)cc1 [Compound 1, (R)-4-(7-(4-bromo-3-(trifluoromethyl)benzoyl)-2-(3-cyano-5-methyl-1H-pyrazol-1-yl)-6-methyl-4-oxo-5,6,7,8-tetrahydropyrido[3,4-d]pyrimidin-3(4H)-yl)-N-methylbenzamide]",≤ 0.05,> 50
CNC(=O)c1ccc(-n2c(-n3nc(C(F)(F)F)cc3C)nc3c(c2=O)C[C@@H](C)N(C(=O)c2ccc(Br)c(C(F)(F)F)c2)C3)cc1 [Compound 5],≤ 0.05,> 0.5
CNC(=O)c1ccc(-n2c(-n3nc(C(C)C)cc3C)nc3c(c2=O)C[C@@H](C)N(C(=O)c2ccc(Br)c(C(F)(F)F)c2)C3)cc1 [Compound 7],≤ 0.05,> 50
"CNC(=O)c1ccc(-n2c(-n3nc(C)cc3C#N)nc3c(c2=O)C[C@@H](C)N(C(=O)c2ccc(Br)c(C(F)(F)F)c2)C3)cc1 [Compound 2, (R)-4-(7-(4-bromo-3-(trifluoromethyl)benzoyl)-2-(5-cyano-3-methyl-1H-pyrazol-1-yl)-6-methyl-4-oxo-5,6,7,8-tetrahydropyrido[3,4-d]pyrimidin-3(4H)-yl)-N-methylbenzamide]",≤ 0.05,29.2
CNC(=O)c1ccc(-n2c(-n3nc(C(C)(C)C)cc3C)nc3c(c2=O)C[C@@H](C)N(C(=O)c2ccc(Br)c(C(F)(F)F)c2)C3)cc1 [Compound 6],≤ 0.05,41.8
"CNC(=O)c1ccc(-n2c(-n3nc(C4CC4)cc3C)nc3c(c2=O)C[C@@H](C)N(C(=O)c2ccc(Br)c(C(F)(F)F)c2)C3)cc1 [Compound 3, (R)-4-(7-(4-bromo-3-(trifluoromethyl)benzoyl)-2-(3-cyclopropyl-5-methyl-1H-pyrazol-1-yl)-6-methyl-4-oxo-5,6,7,8-tetrahydropyrido[3,4-d]pyrimidin-3(4H)-yl)-N-methylbenzamide]",≤ 0.05,> 50
